Data published in patent publication US9428519B2, “Acylated derivative of homoharringtonine, preparation method therefor, and application thereof” (HANGZHOU BENSHENG PHARMACEUTICAL CO., LTD., priority 2011, dated 2016).
Converted amounts (≈) assume the structure as drawn.

How the values were obtained:
[1] = test system: H9 (acute lymphoblastic leukemia, ALL); experiment: MTT growth inhibition of leukemia cells, 72 h; assay type: cell-based, human; conditions: Homo sapiens, MTT
Source text: (§1) Leukemia cell lines: leukemia cell lines: K562/adr (drug-resistant, chronic myeloid leukemia, CML), NB4 (acute promyelocytic leukemia, AML), Kasumi-1 (acute myeloid leukemia M2 type, AML-M2), Jurkat (acute lymphoblastic leukemia, ALL), all of which are donated by Cancer Research Institute of Zhejiang University, China; and H9 (acute lymphoblastic leukemia, ALL), which is purchased from China Center for Type Culture Collection (CCTCC).
(§2) Reagents: The standard sample of homoharringtonine (HHT) is purchased from Taihua Natural Plant Pharmaceutical Co., Ltd., Shaanxi, China, the homoharringtonine derivatives of the present invention.
(§3) Obtaining 6000 well-growing leukemia cells and inoculating them into wells of a 96-well cell culture plate. The culture medium is the 1640 cell culture medium containing 10% fetal bovine serum. After adding the homoharringtonine derivatives of different concentrations and mixing uniformly, placing the plate in a carbon dioxide cell incubator (5% CO2) at 37° C. and incubated for 72 hours. Then the viable cell concentration is determined by the MTT method. In this experiment, the cell viability in control group (not treated with any compound) is set as 100%. On such basis, the cell viability (%) after treatment and the 50% inhibiting concentration of the compound for the leukemia cell growth at 72 hours (IC50 value of 72 hours) are calculated.

[2] = test system: Jurkat (acute lymphoblastic leukemia, ALL); experiment: MTT growth inhibition of leukemia cells, 72 h; assay type: cell-based, human; conditions: Homo sapiens, Jurkat
Source text: as §1, §2, §3

[3] = test system: K562/adr (drug-resistant, chronic myeloid leukemia, CML); experiment: MTT growth inhibition of leukemia cells, 72 h; assay type: cell-based, human; conditions: Homo sapiens, K562/Adr, MTT
Source text: as §1, §2, §3

[4] = test system: Kasumi-1 (acute myeloid leukemia M2 type, AML-M2); experiment: MTT growth inhibition of leukemia cells, 72 h; assay type: cell-based, human; conditions: Homo sapiens, Kasumi 1, MTT
Source text: as §1, §2, §3

[5] = test system: NB4 (acute promyelocytic leukemia, AML); experiment: MTT growth inhibition of leukemia cells, 72 h; assay type: cell-based, human; conditions: Homo sapiens, MTT
Source text: as §1, §2, §3

[6] = test system: RPMI8226 (multiple myeloma); experiment: MTT growth inhibition of multiple myeloma cells, 72 h; assay type: cell-based, human; conditions: Homo sapiens, RPMI-8226, MTT
Procedure: Multiple myeloma and lymphoma cell lines: RPMI8226 (multiple myeloma), purchased from Fuxiang Bio-tech Co. Ltd., Shanghai, China.
as §3

A549 (human lung cancer) = experiment: MTT growth inhibition of human solid tumor cells, 72 h; assay type: cell-based; conditions: Homo sapiens, A549
Procedure: (§4) Human solid tumor cell lines: Hep-2 (laryngeal carcinoma), A549 (human lung cancer), CaES-17 (esophageal cancer cell), PC-3 (prostate cancer), CNE (nasopharyngeal carcinoma cell), and SK-OV-3 (ovarian cancer cell), all of which are purchased from China Center For Type Culture Collection; RKO (human colon adenocarcinoma cell), MGC 803 (human gastric cancer cell), MG63 (osteosarcoma) and U87 MG (malignant glioma cell), all of which are purchased from Fuxiang Bio-tech Co. Ltd., Shanghai, China; PANC-1 (pancreatic cancer), Huh7 (human liver cancer cell), Becap37 (human breast cancer cell), and Hela (human cervical cancer cell), all of which are donated by Cancer Research Institute of Zhejiang University, China.
(§5) Obtaining 4000 well-growing human solid tumor cells and inoculating them into wells of a 96-well cell culture plate. The culture medium is DMEM High Glucose cell culture medium containing 10% fetal bovine serum. The plate is placed in a carbon dioxide cell incubator (5% CO2) at 37° C. and incubated for 24 hours. After adding the homoharringtonine derivatives of different concentration and mixing uniformly, the plate is placed in a carbon dioxide cell incubator (5% CO2) at 37° C. and incubated for 72 hours. Then the viable cell concentration is determined by the MTT method and the cell viability (%) after drug treatment is calculated. In this experiment, the cell viability of control group (not treated with any compound) is set as 100%.

[7] = test system: Becap37 (human breast cancer cell); experiment: as above; assay type: cell-based; conditions: Homo sapiens
Procedure: as §4, §5

[8] = test system: CNE (nasopharyngeal carcinoma cell); experiment: as above; assay type: cell-based; conditions: Homo sapiens, MTT
Procedure: as §4, §5

[9] = test system: CaES-17 (esophageal cancer cell); experiment: as above; assay type: cell-based; conditions: Homo sapiens, CaEs17
Procedure: as §4, §5

[10] = test system: Hela (human cervical cancer cell); experiment: as above; assay type: cell-based; conditions: Homo sapiens, HeLa, MTT
Procedure: as §4, §5

[11] = test system: Hep-2 (laryngeal carcinoma); experiment: as above; assay type: cell-based; conditions: Homo sapiens, HEp-2
Procedure: as §4, §5

[12] = test system: Huh7 (human liver cancer cell); experiment: as above; assay type: cell-based; conditions: Homo sapiens, Huh-7
Procedure: as §4, §5

MG63 (osteosarcoma) = experiment: as above; assay type: cell-based
Procedure: as §4, §5

[13] = test system: MGC 803 (human gastric cancer cell); experiment: as above; assay type: cell-based; conditions: Homo sapiens, MGC-803
Procedure: as §4, §5

[14] = test system: PANC-1 (pancreatic cancer); experiment: as above; assay type: cell-based; conditions: Homo sapiens, PANC-1, MTT
Procedure: as §4, §5

PC-3 (prostate cancer) = experiment: as above; assay type: cell-based; conditions: Homo sapiens, MTT
Procedure: as §4, §5

[15] = test system: RKO (human colon adenocarcinoma cell); experiment: as above; assay type: cell-based
Procedure: as §4, §5

[16] = test system: SK-OV-3 (ovarian cancer cell); experiment: as above; assay type: cell-based; conditions: Homo sapiens, SK-OV-3, MTT
Procedure: as §4, §5

[17] = test system: U87 MG (malignant glioma cell); experiment: as above; assay type: cell-based; conditions: Homo sapiens, U-87 MG
Procedure: as §4, §5

COC(=O)C[C@](O)(CCCC(C)(C)OC(=O)c1ccco1)C(=O)O[C@@H]1C(OC)=C[C@]23CCCN2CCc2cc4c(cc2[C@H]13)OCO4 [BS-HH-059]
IC50 [1]: 0.007 µg/mL (≈ 0.0109 µM) | IC90 [1]: 0.02 µg/mL (≈ 0.0313 µM) | IC50 [2]: 0.003 µg/mL (≈ 0.00469 µM) | IC90 [2]: ≥ 16 µg/mL | IC50 [3]: 0.03 µg/mL (≈ 0.0469 µM) | IC90 [3]: 0.35 µg/mL (≈ 0.547 µM) | IC50 [4]: 0.005 µg/mL (≈ 0.00782 µM) | IC90 [4]: 0.012 µg/mL (≈ 0.0188 µM) | IC50 [5]: 0.006 µg/mL (≈ 0.00938 µM) | IC90 [5]: 0.012 µg/mL (≈ 0.0188 µM) | IC50 [6]: 0.006 µg/mL (≈ 0.00938 µM) | IC90 [6]: 0.039 µg/mL (≈ 0.061 µM) | IC50 (A549 (human lung cancer)): 0.03 µg/mL (≈ 0.0469 µM) | IC90 (A549 (human lung cancer)): > 16 µg/mL | IC50 [7]: 0.007 µg/mL (≈ 0.0109 µM) | IC90 [7]: 7.4 µg/mL (≈ 11.6 µM) | IC50 [8]: 0.031 µg/mL (≈ 0.0485 µM) | IC90 [8]: > 16 µg/mL | IC50 [9]: 0.029 µg/mL (≈ 0.0453 µM) | IC90 [9]: 16 µg/mL (≈ 25 µM) | IC50 [10]: 0.014 µg/mL (≈ 0.0219 µM) | IC90 [10]: 16 µg/mL (≈ 25 µM) | IC50 [11]: 0.015 µg/mL (≈ 0.0234 µM) | IC90 [11]: > 16 µg/mL | IC50 [12]: 0.012 µg/mL (≈ 0.0188 µM) | IC90 [12]: 0.081 µg/mL (≈ 0.127 µM) | IC50 (MG63 (osteosarcoma); Homo sapiens, MG-63, MTT): 0.02 µg/mL (≈ 0.0313 µM) | IC90 (MG63 (osteosarcoma); Homo sapiens, MG-63, MTT): 3.08 µg/mL (≈ 4.81 µM) | anti-MG63 effect relative to homoharringtonine (MG63 (osteosarcoma); vs HHT): substantially superior | IC50 [13]: 0.021 µg/mL (≈ 0.0328 µM) | IC90 [13]: 0.11 µg/mL (≈ 0.172 µM) | IC50 [14]: 0.029 µg/mL (≈ 0.0453 µM) | IC90 [14]: > 16 µg/mL | IC50 (PC-3 (prostate cancer)): 0.08 µg/mL (≈ 0.125 µM) | IC90 (PC-3 (prostate cancer)): > 16 µg/mL | IC50 ([15]; Homo sapiens, MTT): 0.001 µg/mL (≈ 0.00156 µM) | IC90 ([15]; Homo sapiens, MTT): 0.015 µg/mL (≈ 0.0234 µM) | anti-RKO effect relative to homoharringtonine ([15]; vs HHT): substantially superior | IC50 [16]: 0.08 µg/mL (≈ 0.125 µM) | IC90 [16]: > 16 µg/mL | IC50 [17]: 0.023 µg/mL (≈ 0.036 µM) | IC90 [17]: 0.18 µg/mL (≈ 0.281 µM)
